The experiment has as its target T1, BACE1 (Homo sapiens, UniProt P56817).
T1 construct: Human HEK293 cells which are stably transfected with a vector expressing a cDNA of the human APP wt gene (APP695); endogenous in cells; host or cells: HEK293 cells stably transfected with human APP695 (wt)
In words: Cellular Aβ-lowering assay a) (Aβ40 ELISA). The following applies: cellular assay a): HEK293 cells expressing human APP695, Aβ40 in supernatant by ELISA after 18-20 hrs; read-out: BACE1 cell act. Aβ40 IC50. The experiment is classed as cell-based. As for the experimental part:
a) Human HEK293 cells which are stably transfected with a vector expressing a cDNA of the human APP wt gene (APP695) were used to assess the potency of the compounds in a cellular assay. The cells were seeded in 96-well microtiter plates in cell culture medium (Iscove, plus 10% (v/v) fetal bovine serum, glutamine, penicillin/streptomycin) to about 80% confluence and the compounds were added at a 10× concentration in 1/10 volume of medium without FCS containing 8% DMSO (final concentration of DMSO was kept at 0.8% v/v). After 18-20 hrs incubation at 37° C. and 5% CO2 in a humidified incubator the culture supernatant was harvested for the determination of Aβ40 concentrations. 96 well ELISA plates (e.g., Nunc MaxiSorb) were coated with monoclonal antibody which specifically recognize the C-terminal end of Aβ40 (Brockhaus et al., NeuroReport 9, 1481-1486; 1998). After blocking of non-specific binding sites with e.g. 1% BSA and washing, the culture supernatants were added in suitable dilutions together with a horseradish peroxidase-coupled Aβ detection antibody (e.g., antibody 4G8, Senetek, Maryland Heights, Mo.) and incubated for 5 to 7 hrs. Subsequently the wells of the microtiter plate were washed extensively with Tris-buffered saline containing 0.05% Tween 20 and the assay was developed with tetramethylbenzidine/H2O2 in citric acid buffer. After stopping the reaction with one volume of 1N H2SO4 the reaction was measured in an ELISA reader at 450 nm wavelength. The concentrations of Aβ in the culture supernatants were calculated from a standard curve obtained with known amounts of pure Aβ peptide.
For orientation: An ELISA detects its analyte on a solid surface through an enzyme-linked reagent.

As a reminder, the IC50 is the point on the concentration scale where inhibition reaches its midpoint.

T1 sequence (P56817 46-501): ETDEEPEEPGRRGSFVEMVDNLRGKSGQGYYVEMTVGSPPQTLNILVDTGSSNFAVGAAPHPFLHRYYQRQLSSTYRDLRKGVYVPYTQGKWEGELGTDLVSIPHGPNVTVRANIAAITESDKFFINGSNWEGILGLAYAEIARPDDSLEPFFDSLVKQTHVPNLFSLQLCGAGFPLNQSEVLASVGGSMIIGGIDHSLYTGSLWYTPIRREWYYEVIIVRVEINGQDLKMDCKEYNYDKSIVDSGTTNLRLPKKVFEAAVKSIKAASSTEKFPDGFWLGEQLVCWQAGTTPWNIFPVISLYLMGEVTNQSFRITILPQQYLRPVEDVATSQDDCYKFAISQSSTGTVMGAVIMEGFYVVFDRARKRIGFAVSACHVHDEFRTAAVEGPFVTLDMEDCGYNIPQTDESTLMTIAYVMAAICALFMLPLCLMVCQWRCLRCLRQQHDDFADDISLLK

For `NC1=N[C@@]2(CC(c3ccccc3)Oc3ccc(-c4cncc(Cl)c4)cc32)C(F)(F)CO1` (mixture of isomers) [Example 23, (2RS,4R)-6-(5-chloropyridin-3-yl)-5′,5′-difluoro-2-phenyl-5′,6′-dihydrospiro[chroman-4,4′-[1,3]oxazin]-2′-amine], the IC50 worked out at 420 nM.

In the case of `N#Cc1cncc(-c2ccc3c(c2)[C@@]2(CC(c4ccccc4)O3)N=C(N)OCC2(F)F)c1` (mixture of isomers) [Example 24, 5-((2RS,4R)-2′-amino-5′,5′-difluoro-2-phenyl-5′,6′-dihydrospiro[chroman-4,4′-[1,3]oxazine]-6-yl)nicotinonitrile], the IC50 came to 98 nM.

On to `NC1=N[C@@]2(CC(c3ccccc3)Oc3ccc(-c4cncnc4)cc32)C(F)(F)CO1` (mixture of isomers) [Example 25, (2RS,4R)-5′,5′-difluoro-2-phenyl-6-(pyrimidin-5-yl)-5′,6′-dihydrospiro[chroman-4,4′-[1,3]oxazin]-2′-amine], for which the IC50 came to 1580 nM.

`NC1=N[C@@]2(CC(c3ccccc3)Oc3ccc(-c4cc(Cl)cc(Cl)c4)cc32)C(F)(F)CO1` (mixture of isomers) [Example 26, (2RS,4R)-6-(3,5-dichlorophenyl)-5′,5′-difluoro-2-phenyl-5′,6′-dihydrospiro[chroman-4,4′-[1,3]oxazin]-2′-amine]: the IC50 came to 2870 nM.

Consider `NC1=N[C@@]2(CC(c3ccccc3)Oc3ccc(NC(=O)c4ccc(C(F)(F)F)cn4)cc32)C(F)(F)COC1` (mixture of isomers) [Example 52, N-((2RS,4R)-3′-Amino-6′,6′-difluoro-2-phenyl-6′,7′-dihydro-2′H-spiro[chroman-4,5′-[1,4]oxazepine]-6-yl)-5-(trifluoromethyl)picolinamide], for which the half-maximal inhibitory concentration (IC50) is 3380 nM.

Consider `N#Cc1ccc(C(=O)Nc2ccc3c(c2)[C@@]2(CC(c4ccccc4)O3)N=C(N)COCC2(F)F)nc1` (mixture of isomers) [Example 53, N-((2RS,4R)-3′-Amino-6′,6′-difluoro-2-phenyl-6′,7′-dihydro-2′H-spiro[chroman-4,5′-[1,4]oxazepine]-6-yl)-5-cyanopicolinamide], for which the IC50 stood at 470 nM.

As for `NC1=N[C@@]2(CC(c3ccccc3)Oc3ccc(-c4cncc(Cl)c4)cc32)C(F)(F)COC1` (mixture of isomers) [Example 56, (2RS,4R)-6-(5-Chloropyridin-3-yl)-6′,6′-difluoro-2-phenyl-6′,7′-dihydro-2′H-spiro[chroman-4,5′-[1,4]oxazepin]-3′-amine], the IC50 amounted to 2100 nM.

`NC1=N[C@@]2(CC(c3ccccc3)Oc3ccc(-c4cc(Cl)cc(Cl)c4)cc32)C(F)(F)COC1` (mixture of isomers) [Example 57, (2RS,4R)-6-(3,5-Dichlorophenyl)-6′,6′-difluoro-2-phenyl-6′,7′-dihydro-2′H-spiro[chroman-4,5′-[1,4]oxazepin]-3′-amine]: the IC50 was 6280 nM.

Consider `NC1=N[C@@]2(CC(c3ccccc3)Oc3ccc(-c4cncnc4)cc32)C(F)(F)COC1` (mixture of isomers) [Example 58, (2RS,4R)-6′,6′-difluoro-2-phenyl-6-(pyrimidin-5-yl)-6′,7′-dihydro-2′H-spiro[chroman-4,5′-[1,4]oxazepin]-3′-amine], for which the IC50 worked out at 1290 nM.

Take `N#Cc1cncc(-c2ccc3c(c2)[C@@]2(CC(c4ccccc4)O3)N=C(N)COCC2(F)F)c1` (mixture of isomers) [Example 59, 5-((2RS,4R)-3′-amino-6′,6′-difluoro-2-phenyl-6′,7′-dihydro-2′H-spiro[chroman-4,5′-[1,4]oxazepine]-6-yl)nicotinonitrile]: the IC50 was determined as 340 nM.

In the case of `N#Cc1cccc(-c2ccc3c(c2)[C@@]2(CC(c4ccccc4)O3)N=C(N)COCC2(F)F)c1` (mixture of isomers) [Example 60, 3-((2RS,4R)-3′-amino-6′,6′-difluoro-2-phenyl-6′,7′-dihydro-2′H-spiro[chroman-4,5′-[1,4]oxazepine]-6-yl)benzonitrile], the IC50 is 1040 nM.

`NC1=N[C@@]2(CC(c3ccccc3)Oc3ccc(NC(=O)c4ccc(Cl)cn4)cc32)C(F)(F)CO1` (single isomer, unassigned) [Example 36, N-((2R or 2S,4R)-2′-Amino-5′,5′-difluoro-2-phenyl-5′,6′-dihydrospiro[chroman-4,4′-[1,3]oxazine]-6-yl)-5-chloropicolinamide]: the IC50 stood at 195 nM.

`N#Cc1ccc(C(=O)Nc2ccc3c(c2)[C@@]2(CC(c4ccccc4)O3)N=C(N)OCC2(F)F)nc1` (single isomer, unassigned) [Example 37, N-((2R or 2S,4R)-2′-Amino-5′,5′-difluoro-2-phenyl-5′,6′-dihydrospiro[chroman-4,4′-[1,3]oxazine]-6-yl)-5-cyanopicolinamide]: the IC50 was 70 nM.

`NC1=N[C@@]2(CC(c3ccccc3)Oc3ccc(NC(=O)c4ccc(F)cn4)cc32)C(F)(F)CO1` (single isomer, unassigned) [Example 38, N-((2R or 2S,4R)-2′-Amino-5′,5′-difluoro-2-phenyl-5′,6′-dihydrospiro[chroman-4,4′-[1,3]oxazine]-6-yl)-5-fluoropicolinamide]: the IC50 came to 510 nM.

For the molecule `NC1=N[C@@]2(CC(c3ccccc3)Oc3ccc(NC(=O)c4ccc(C(F)(F)F)cn4)cc32)C(F)(F)CO1` (single isomer, unassigned) [Example 39, N-((2R or 2S,4R)-2′-Amino-5′,5′-difluoro-2-phenyl-5′,6′-dihydrospiro[chroman-4,4′-[1,3]oxazine]-6-yl)-5-(trifluoromethyl)picolinamide], the IC50 is 280 nM.

Turning to `NC1=N[C@@]2(CCC(F)(F)c3ccc(-c4cncc(Cl)c4)cc32)C(F)(F)CO1` [Example 3, (R)-7-(5-Chloropyridin-3-yl)-4,4,5′,5′-tetrafluoro-3,4,5′,6′-tetrahydro-2H-spiro[naphthalene-1,4′-[1,3]oxazin]-2′-amine], the IC50 worked out at 2550 nM.

As for `NC1=N[C@@]2(CCC(F)(F)c3ccc(-c4cncc(F)c4)cc32)C(F)(F)CO1` [Example 4, (R)-4,4,5′,5′-Tetrafluoro-7-(5-fluoropyridin-3-yl)-3,4,5′,6′-tetrahydro-2H-spiro[naphthalene-1,4′-[1,3]oxazin]-2′-amine], the IC50 is 5690 nM.

As for `N#Cc1cncc(-c2ccc3c(c2)[C@@]2(CCC3(F)F)N=C(N)OCC2(F)F)c1` [Example 5, (R)-5-(2′-Amino-4,4,5′,5′-tetrafluoro-3,4,5′,6′-tetrahydro-2H-spiro[naphthalene-1,4′-[1,3]oxazine]-7-yl)nicotinonitrile], the IC50 was found to be 2770 nM.

Consider `NC1=N[C@@]2(CCc3ccc(-c4ccnc(Cl)c4)cc32)C(F)(F)CO1` [Example 6, (R)-6-(2-Chloropyridin-4-yl)-5′,5′-difluoro-2,3,5′,6′-tetrahydrospiro[indene-1,4′-[1,3]oxazin]-2′-amine], for which the IC50 was determined as 1360 nM.

`NC1=N[C@@]2(CCc3ccc(-c4cncnc4)cc32)C(F)(F)CO1` [Example 7, (R)-5′,5′-Difluoro-6-(pyrimidin-5-yl)-2,3,5′,6′-tetrahydrospiro[indene-1,4′-[1,3]oxazin]-2′-amine]: the IC50 turned out to be 2370 nM.

For the molecule `N#Cc1cccc(-c2ccc3c(c2)[C@@]2(CC3)N=C(N)OCC2(F)F)c1` [Example 10, (R)-3-(2′-Amino-5′,5′-difluoro-2,3,5′,6′-tetrahydrospiro[indene-1,4′-[1,3]oxazine]-6-yl)benzonitrile], the IC50 was 960 nM.

In the case of `NC1=N[C@@]2(CCCc3ccc(NC(=O)c4ccc(Cl)cn4)cc32)C(F)(F)CO1` [Example 12, (R)—N-(2′-Amino-5′,5′-difluoro-3,4,5′,6′-tetrahydro-2H-spiro[naphthalene-1,4′-[1,3]oxazine]-7-yl)-5-chloropicolinamide], the IC50 amounted to 22 nM.

As to `N#Cc1ccc(C(=O)Nc2ccc3c(c2)[C@@]2(CC3)N=C(N)OCC2(F)F)nc1` [Example 15, (R)—N-(2′-Amino-5′,5′-difluoro-2,3,5′,6′-tetrahydrospiro[indene-1,4′-[1,3]oxazine]-6-yl)-5-cyanopicolinamide], the IC50 turned out to be 510 nM.

`NC1=N[C@@]2(CCc3ccc(NC(=O)c4ccc(Cl)cn4)cc32)C(F)(F)CO1` [Example 16, (R)—N-(2′-Amino-5′,5′-difluoro-2,3,5′,6′-tetrahydrospiro[indene-1,4′-[1,3]oxazine]-6-yl)-5-chloropicolinamide]: the IC50 was 2490 nM.

Regarding `NC1=N[C@@]2(CCc3ccc(NC(=O)c4ccc(C(F)(F)F)cn4)cc32)C(F)(F)CO1` [Example 18, (R)—N-(2′-Amino-5′,5′-difluoro-2,3,5′,6′-tetrahydrospiro[indene-1,4′-[1,3]oxazine]-6-yl)-5-(trifluoromethyl)picolinamide], the IC50 was determined as 660 nM.

In the case of `NC1=N[C@@]2(CCOc3ccc(-c4cncnc4)cc32)C(F)(F)CO1` [Example 21, (R)-5′,5′-difluoro-6-(pyrimidin-5-yl)-5′,6′-dihydrospiro[chroman-4,4′-[1,3]oxazin]-2′-amine], the IC50 worked out at 5140 nM.

For the molecule `N#Cc1cccc(-c2ccc3c(c2)[C@@]2(CC(c4ccccc4)O3)N=C(N)OCC2(F)F)c1` (stereo partly drawn) [Example 27], the IC50 was found to be 260 nM.

Values taken from US9079919B2 (HOFFMANN-LA ROCHE INC., priority 2011, dated 2015).
